Assay results published in PubChem BioAssay (NCI).
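The compound was tested at five concentrations on cells cultured in 96-well plates, with a 48-hour exposure period. TGI denotes the concentration required for complete inhibition of growth.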

Experiments:
Test in all cases: NCI tumour cell line growth inhibition, 48 h
PC-3 prostate = test system: PC-3 prostate
NCI-H460 lung = test system: NCI-H460 lung
OVCAR-5 ovarian = test system: OVCAR-5 ovarian
A549 NSCLC = test system: A549 NSCLC
MALME-3M melanoma = test system: MALME-3M melanoma
CAKI-1 renal = test system: CAKI-1 renal
EKVX NSCLC = test system: EKVX NSCLC
NCI/ADR-RES ovarian = test system: NCI/ADR-RES ovarian
MDA-N = test system: MDA-N
SNB-19 CNS = test system: SNB-19 CNS
MCF7 breast = test system: MCF7 breast
TK-10 renal = test system: TK-10 renal
RPMI-8226 leukemia = test system: RPMI-8226 leukemia
IGROV1 ovarian = test system: IGROV1 ovarian
OVCAR-4 ovarian = test system: OVCAR-4 ovarian
KM12 colon = test system: KM12 colon
MDA-MB-231 breast = test system: MDA-MB-231 breast
HS 578T breast = test system: HS 578T breast
SK-MEL-28 melanoma = test system: SK-MEL-28 melanoma
RXF 393 renal = test system: RXF 393 renal
SK-OV-3 ovarian = test system: SK-OV-3 ovarian
NCI-H226 lung = test system: NCI-H226 lung
SN12C renal = test system: SN12C renal
UACC-257 melanoma = test system: UACC-257 melanoma
CCRF-CEM leukemia = test system: CCRF-CEM leukemia
MOLT-4 leukemia = test system: MOLT-4 leukemia
MDA-MB-435 = test system: MDA-MB-435
HCC-2998 colon = test system: HCC-2998 colon
LOX IMVI melanoma = test system: LOX IMVI melanoma
SF-295 CNS = test system: SF-295 CNS
U251 CNS = test system: U251 CNS
786-0 renal = test system: 786-0 renal
OVCAR-8 ovarian = test system: OVCAR-8 ovarian
NCI-H23 lung = test system: NCI-H23 lung
SK-MEL-5 melanoma = test system: SK-MEL-5 melanoma
ACHN renal = test system: ACHN renal
M14 melanoma = test system: M14 melanoma
OVCAR-3 ovarian = test system: OVCAR-3 ovarian
A498 renal = test system: A498 renal
HOP-92 NSCLC = test system: HOP-92 NSCLC
SF-539 CNS = test system: SF-539 CNS
COLO 205 colon = test system: COLO 205 colon
HCT-15 colon = test system: HCT-15 colon
HCT-116 colon = test system: HCT-116 colon
SR leukemia = test system: SR leukemia
BT-549 breast = test system: BT-549 breast
SW-620 colon = test system: SW-620 colon
NCI-H522 lung = test system: NCI-H522 lung
HT29 colon = test system: HT29 colon
K-562 leukemia = test system: K-562 leukemia
UO-31 renal = test system: UO-31 renal
SK-MEL-2 melanoma = test system: SK-MEL-2 melanoma
HOP-62 NSCLC = test system: HOP-62 NSCLC
SNB-75 CNS = test system: SNB-75 CNS
SF-268 CNS = test system: SF-268 CNS
UACC-62 melanoma = test system: UACC-62 melanoma
T-47D breast = test system: T-47D breast
HL-60(TB) leukemia = test system: HL-60(TB) leukemia
DU-145 prostate = test system: DU-145 prostate

## COc1ccc(CNc2cc(=O)n(C)c(=O)[nH]2)cc1
PC-3 prostate
  TGI: > 100 µM
NCI-H460 lung
  TGI: > 100 µM
OVCAR-5 ovarian
  TGI: > 100 µM
A549 NSCLC
  TGI: > 100 µM
MALME-3M melanoma
  TGI: > 100 µM
CAKI-1 renal
  TGI: > 100 µM
EKVX NSCLC
  TGI: > 100 µM
NCI/ADR-RES ovarian
  TGI: > 100 µM
MDA-N
  TGI: > 100 µM
SNB-19 CNS
  TGI: > 100 µM
MCF7 breast
  TGI: > 100 µM
TK-10 renal
  TGI: > 100 µM
RPMI-8226 leukemia
  TGI: > 100 µM
IGROV1 ovarian
  TGI: > 100 µM
OVCAR-4 ovarian
  TGI: > 100 µM
KM12 colon
  TGI: > 100 µM
MDA-MB-231 breast
  TGI: > 100 µM
HS 578T breast
  TGI: > 100 µM
SK-MEL-28 melanoma
  TGI: > 100 µM
RXF 393 renal
  TGI: > 100 µM
SK-OV-3 ovarian
  TGI: > 100 µM
NCI-H226 lung
  TGI: > 100 µM
SN12C renal
  TGI: > 100 µM
UACC-257 melanoma
  TGI: > 100 µM
CCRF-CEM leukemia
  TGI: > 100 µM
MOLT-4 leukemia
  TGI: > 100 µM
MDA-MB-435
  TGI: > 100 µM
HCC-2998 colon
  TGI: > 100000 nM
LOX IMVI melanoma
  TGI: > 100 µM
SF-295 CNS
  TGI: > 100 µM
U251 CNS
  TGI: > 100 µM
786-0 renal
  TGI: > 100 µM
OVCAR-8 ovarian
  TGI: > 100 µM
NCI-H23 lung
  TGI: > 100 µM
SK-MEL-5 melanoma
  TGI: > 100 µM
ACHN renal
  TGI: > 100 µM
M14 melanoma
  TGI: > 100 µM
OVCAR-3 ovarian
  TGI: > 100 µM
A498 renal
  TGI: > 100 µM
HOP-92 NSCLC
  TGI: > 100 µM
SF-539 CNS
  TGI: > 100 µM
COLO 205 colon
  TGI: > 100 µM
HCT-15 colon
  TGI: > 100 µM
HCT-116 colon
  TGI: > 100 µM
SR leukemia
  TGI: > 100 µM
BT-549 breast
  TGI: > 100 µM
SW-620 colon
  TGI: > 100 µM
NCI-H522 lung
  TGI: > 100 µM
HT29 colon
  TGI: > 100 µM
K-562 leukemia
  TGI: > 100 µM
UO-31 renal
  TGI: > 100 µM
SK-MEL-2 melanoma
  TGI: > 100 µM
HOP-62 NSCLC
  TGI: > 100 µM
SNB-75 CNS
  TGI: > 100 µM
SF-268 CNS
  TGI: > 100 µM
UACC-62 melanoma
  TGI: > 100 µM
T-47D breast
  TGI: > 100 µM

## O=C(O)c1ccccc1NC(=S)c1ccccc1
PC-3 prostate
  TGI: > 100 µM
NCI-H460 lung
  TGI: > 100 µM
OVCAR-5 ovarian
  TGI: > 100 µM
A549 NSCLC
  TGI: > 100 µM
MALME-3M melanoma
  TGI: 65.9 µM
CAKI-1 renal
  TGI: > 100 µM
HL-60(TB) leukemia
  TGI: 98.3 µM
EKVX NSCLC
  TGI: > 100 µM
NCI/ADR-RES ovarian
  TGI: > 100 µM
MDA-N
  TGI: > 100 µM
SNB-19 CNS
  TGI: > 100 µM
MCF7 breast
  TGI: > 100 µM
TK-10 renal
  TGI: > 100 µM
RPMI-8226 leukemia
  TGI: 75.8 µM
IGROV1 ovarian
  TGI: 98.9 µM
OVCAR-4 ovarian
  TGI: 29 µM
KM12 colon
  TGI: > 100 µM
MDA-MB-231 breast
  TGI: > 100 µM
HS 578T breast
  TGI: > 100 µM
RXF 393 renal
  TGI: > 100 µM
SK-OV-3 ovarian
  TGI: > 100 µM
SN12C renal
  TGI: > 100 µM
UACC-257 melanoma
  TGI: > 100 µM
CCRF-CEM leukemia
  TGI: > 100 µM
MOLT-4 leukemia
  TGI: > 100 µM
MDA-MB-435
  TGI: > 100 µM
HCC-2998 colon
  TGI: 15.9 nM
LOX IMVI melanoma
  TGI: > 100 µM
SF-295 CNS
  TGI: > 100 µM
U251 CNS
  TGI: > 100 µM
786-0 renal
  TGI: > 100 µM
OVCAR-8 ovarian
  TGI: > 100 µM
NCI-H23 lung
  TGI: > 100 µM
SK-MEL-5 melanoma
  TGI: > 100 µM
ACHN renal
  TGI: 84.6 µM
M14 melanoma
  TGI: > 100 µM
OVCAR-3 ovarian
  TGI: > 100 µM
A498 renal
  TGI: > 100 µM
HOP-92 NSCLC
  TGI: 44.1 µM
SF-539 CNS
  TGI: > 100 µM
COLO 205 colon
  TGI: > 100 µM
HCT-15 colon
  TGI: > 100 µM
HCT-116 colon
  TGI: > 100 µM
BT-549 breast
  TGI: > 100 µM
SW-620 colon
  TGI: > 100 µM
NCI-H522 lung
  TGI: 39.8 µM
DU-145 prostate
  TGI: > 100 µM
HT29 colon
  TGI: > 100 µM
K-562 leukemia
  TGI: > 100 µM
UO-31 renal
  TGI: > 100 µM
HOP-62 NSCLC
  TGI: > 100 µM
SF-268 CNS
  TGI: > 100 µM
UACC-62 melanoma
  TGI: > 100 µM
T-47D breast
  TGI: > 100 µM
